The text below walks through data of paper PMC4766710 (BMC Cancer, 2016).

For data set [1] the following is noted: in vivo, 75 mg.
Data set [2] concerns ABC. As to conditions: monotherapy 100 mg bd, older formulation; 29 patients with ABC; cited from earlier work.
Data set [3] concerns advanced biliary tract cancer. The data set is described as follows: ABC-04 phase Ib trial: objective response (RECIST v1.1), PFS, deaths. It counts as in vivo, patients. As to conditions: 75 mg bd + CisGem. The protocol: Patients were assessed prior to starting treatment and at regular intervals throughout treatment. […] All AEs occurring between the date of signing consent and 30 days after the last dose of any trial treatment were recorded. AEs were graded according to CTCAE v 4.03. Blood biochemistry and a full blood count with differential were carried out at the same time points as the physical examinations. […] In addition, prior to registration, an electrocardiogram and echocardiogram, and an ophthalmological examination were required. Disease status was assessed by computed tomography (CT) scan, with or without a liver magnetic resonance (MR) scan, prior to registration, after cycles 4 and 8 and then subsequently every 12 weeks until disease progression. Patients with measurable disease at baseline were assessed for objective response according to RECIST v1.1 [10]. For patients with non-measurable disease, objective response was not assessed and progressive disease was documented by the appearance of new lesions or by symptomatic deterioration.
Tumour responses were assessed according to RECIST version 1.1. The best response across all time points has been reported. For PFS and OS, the time to progression or death was measured from the date of registration. PFS and OS were estimated for the population by the Kaplan-Meier method.

A short description of data set [4]: clinical. The following applies: human, in vivo, 75 mg.
Data set [5] is described as follows: ABC-04 phase Ib trial: dose limiting toxicity, adverse events, compliance. It counts as in vivo, patients. The protocol: Four dose levels were included in the protocol for potential evaluation; 75 mg bd, 50 mg bd, 75 mg once daily (od) and 50 mg od. The first dose level evaluated was 75 mg bd. Patients were recruited in cohorts of three. The number of patients experiencing a DLT during the first cycle of treatment in each cohort was used to decide the dose level at which to recruit the next cohort. If no patients experienced a DLT, then that dose level was the recommended dose. If one patient experienced a DLT, the cohort was to be expanded to six patients. If > 2 patients experienced DLT, then subsequent patients were to be entered into the next lower dose level. […]
Patients were assessed prior to starting treatment and at regular intervals throughout treatment. […] All AEs occurring between the date of signing consent and 30 days after the last dose of any trial treatment were recorded. […] Disease status was assessed by computed tomography (CT) scan, with or without a liver magnetic resonance (MR) scan, prior to registration, after cycles 4 and 8 and then subsequently every 12 weeks until disease progression. Patients with measurable disease at baseline were assessed for objective response according to RECIST v1.1 [10]. For patients with non-measurable disease, objective response was not assessed and progressive disease was documented by the appearance of new lesions or by symptomatic deterioration. […]

Where [6] appears, read: RECIST v1.1, listed as selumetinib.

Read-outs that look alike come from different tables or passages of the source.

In general, AUC(0-t) refers to the area under the concentration-time curve up to a stated or last time point. A lower AUC(0-t) goes with less exposure. By Cmax is commonly meant the maximum level reached in the sampled fluid or tissue. By Tmax is commonly meant the time at which the peak concentration occurs. Turning to `O=C(NOCCO)c1cc2nc[nH]c2c(F)c1Nc1ccc(Br)cc1Cl` [N-desmethyl selumetinib], in data set [1] (human), the area under the curve AUC(0-t) was 347.26 ng·h/mL, the Cmax is 77.16 ng/mL, the Tmax came out at 2.00 h and the “decrease of AUC(0-t) in the presence of CisGem” value is 40%. Also, in data set [1] (human), the “decrease of AUC(0-∞) in the presence of CisGem” value amounted to 40% and the “decrease of Cmax in the presence of CisGem” value worked out at 40%. Further, in data set [1], the “AUC(0-∞)” value amounted to 452.88 ng·h/mL.
The term AUC(0-inf) denotes the area under the concentration-time curve extrapolated to infinity. A higher AUC(0-inf) goes with more exposure. Take `Cn1cnc2c(F)c(Nc3ccc(Br)cc3Cl)c(C(=O)NOCCO)cc21` [Selumetinib]: the Cmax in data set [1] (human) was 1331.33 ng/mL. Also, the response rate in data set [2] is on record as 12%. Besides, in data set [3], the “Median time from documented best objective response until progression or death” value worked out at 5.9 months and the “median time from documented best objective response until progression or death, best response SD” value stood at 3.1 months. In addition, the “median PFS” value in data set [3] (IQR 5.2 to 13.7) is 6.4 months. Also, in data set [3] (Kaplan-Meier), the “PFS rate at 6 months” value turned out to be 67% and the “PFS rate at 12 months” value is 33%. For the same compound, in data set [3] (RECIST v1.1), the “Best objective response: Complete response” value is reported as 1 N, the “Best objective response: Partial response” value stood at 1 N and the “Best objective response: Stable disease” value was 6 N. In data set [3] (setting [6]), the “Best objective response: Partial response” value is 3 N and the “Best objective response: Stable disease” value is given as 5 N. Further, the “Best objective response: Not evaluable” value in data set [3] (RECIST v1.1, total 13) is 5 N. For the same compound, the “patients who had died” value in data set [3] (at the time of the final analysis) amounted to 7 patients. Also, in data set [4], the total exposure AUC(0-inf) turned out to be 5650 ng·h/mL and the Tmax was determined as 1.55 h. The “deaths considered related to protocol treatment” value in data set [5] (75 mg bd + CisGem) is “None”. In addition, in data set [5] (dose de-escalation scheme, patients with ABC), the “recommended dose of selumetinib when combined with CisGem” value stood at 75 mg bd.
